Assay: xn = mol fraction of the nth substance listed

CCCC[N+](CCCC)(CCCC)CCCC.N#C[S-] + CCCOCC(C)O
electrical conductivity [S/m], 101 kPa
Conditions | 248.15 K | 258.15 K | 268.15 K | 278.15 K | 288.15 K | 298.15 K | 308.15 K | 313.15 K
x1 = 0.01119 | 0.0011 | 0.00185 | 0.00285 | 0.00405 | 0.00541 | – | 0.00829 | 0.00901
x1 = 0.01571 | 0.00157 | 0.00271 | 0.00425 | 0.00618 | 0.00842 | 0.01082 | 0.01352 | 0.01485
x1 = 0.01893 | 0.0019 | 0.00331 | 0.00526 | 0.00773 | 0.01064 | 0.01386 | 0.01748 | 0.01934
x1 = 0.02277 | 0.00227 | 0.00401 | 0.00644 | 0.00956 | 0.01332 | 0.01758 | 0.02234 | 0.02493
x1 = 0.02903 | 0.00284 | 0.00511 | 0.00834 | 0.01257 | 0.01775 | 0.02385 | 0.03061 | 0.03428
x1 = 0.03808 | 0.00356 | 0.00652 | 0.01082 | 0.01658 | 0.02379 | 0.03253 | 0.04237 | 0.04779
x1 = 0.04326 | 0.0039 | 0.00723 | 0.01211 | 0.01864 | 0.02705 | 0.0372 | 0.04875 | 0.0548
x1 = 0.06196 | 0.00476 | 0.00908 | 0.01564 | 0.02482 | 0.03669 | 0.05153 | 0.06887 | 0.07879
x1 = 0.07662 | 0.00504 | 0.00979 | 0.01722 | 0.02776 | 0.04173 | 0.05942 | 0.0805 | 0.09266
x1 = 0.09291 | 0.005 | 0.00994 | 0.01782 | 0.02925 | 0.04479 | 0.06473 | 0.08902 | 0.1031
x1 = 0.1099 | 0.00469 | 0.00956 | 0.01751 | 0.02928 | 0.04564 | 0.06699 | 0.09343 | 0.109
x1 = 0.1312 | 0.00408 | 0.00857 | 0.01611 | 0.02768 | 0.04408 | 0.06606 | 0.09376 | 0.1103
x1 = 0.1458 | 0.0036 | 0.00773 | 0.01481 | 0.02593 | 0.0419 | 0.06371 | 0.09151 | 0.1083

CCCO + CC[n+]1ccccc1.N#C[N-]C#N
Conditions | viscosity [mPa·s]
288.15 K, 100 kPa, x1 = 1 | 2.51

CC[NH+](CC)CC.O=S(=O)([O-])O + O
298.15 K, 101 kPa
Conditions | viscosity [mPa·s]
x2 = 0.3012 | 184
x2 = 0.4244 | 169
x2 = 0.6124 | 140
x2 = 0.7344 | 110.8
x2 = 0.9244 | 39.8

CCCO + CS(=O)(=O)[O-].C[N+](C)(CCO)CCO
101 kPa, x2 = 0
Conditions | viscosity [mPa·s]
298.15 K | 1.95
303.15 K | 1.73
308.15 K | 1.545
313.15 K | 1.383
318.15 K | 1.247
323.15 K | 1.136

NCC(=O)O + CCCCCCCCCCCC[N+](C)(C)Cc1ccccc1.[Cl-] + O
electrical conductivity [S/m], 101 kPa
Conditions | 293.15 K | 298.15 K | 303.15 K | 308.15 K | 313.15 K
x1 = 0.0008876, x2 = 0 | 0.000384 | 0.000431 | 0.000492 | 0.000549 | 0.000613
x1 = 0.001759, x2 = 0 | 0.00074 | 0.000839 | 0.000945 | 0.00106 | 0.00118

CCCO + CCCC[n+]1ccn(C)c1.O=S(=O)([N-]S(=O)(=O)C(F)(F)F)C(F)(F)F
Conditions | viscosity [mPa·s]
298 K, 100 kPa, x2 = 0 | 1.929

O=S1(=O)CCCC1 + CCCC[N+]1(C)CCCC1.O=S(=O)([N-]S(=O)(=O)C(F)(F)F)C(F)(F)F
101.33 kPa, x2 = 0.5
Conditions | viscosity [mPa·s]
303.15 K | 25.8
313.15 K | 18.6
323.15 K | 12.9
333.15 K | 9.7
343.15 K | 8
353.25 K | 6.7

CCCC[N+](C)(CCCC)CCCC.[Cl-] + OC[C@H]1O[C@@H](O[C@H]2[C@H](O)[C@@H](O)[C@@H](O)O[C@@H]2CO)[C@H](O)[C@@H](O)[C@H]1O + O
viscosity [mPa·s], 100 kPa
Conditions | 293.15 K | 298.15 K | 303.15 K | 308.15 K | 313.15 K
x2 = 0, x1 = 0.0003603 | 1.01 | 0.904 | 0.809 | 0.726 | 0.661
x2 = 0, x1 = 0.0007023 | 1.024 | 0.914 | 0.815 | 0.735 | 0.671
x2 = 0, x1 = 0.001062 | 1.035 | 0.93 | 0.829 | 0.744 | 0.686
x2 = 0, x1 = 0.001422 | 1.045 | 0.941 | 0.839 | 0.756 | 0.694

OCC(F)(F)F + CCCC[n+]1ccn(C)c1.O=S(=O)([N-]S(=O)(=O)C(F)(F)F)C(F)(F)F
101 kPa
Conditions | viscosity [mPa·s]
278.15 K, x1 = 0.2626 | 65.4
278.15 K, x1 = 0.4753 | 30.28
278.15 K, x1 = 0.6153 | 16.99
278.15 K, x1 = 0.7568 | 9.09
293.15 K, x1 = 0.6153 | 10.18
298.15 K, x1 = 0.2626 | 27.45
298.15 K, x1 = 0.7568 | 5.03
313.15 K, x1 = 0.4753 | 9.42
318.15 K, x1 = 0.4753 | 8.31
323.15 K, x1 = 1 | 1.02
333.15 K, x1 = 0.2626 | 9.76

CCCCCCCCCCCC[P+](CC)(CC)CC.N#Cc1ccc[n-]1 + OCCN(CCO)CCO
100 kPa
Conditions | electrical conductivity [S/m] | viscosity [mPa·s]
293.15 K, x1 = 0.01 | 0.0023 | –
293.15 K, x1 = 0.035 | 0.0045 | 990
293.15 K, x1 = 0.207 | – | 880
293.15 K, x1 = 0.473 | – | 850
293.15 K, x1 = 0.583 | 0.0111 | –
298.15 K, x1 = 0.051 | – | 652
298.15 K, x1 = 0.207 | – | 585
298.15 K, x1 = 0.809 | – | 506
313.15 K, x1 = 0.051 | – | 189
313.15 K, x1 = 0.207 | – | 186

From the CheMixHub ionic liquid set
